# Patent US12479847B2 (DANA-FARBER CANCER INSTITUTE, INC., priority 2019, dated 2025)
# What was measured:
# Experiment in all cases: KINOMEscan (ScanMAX) kinase profiling
# Type in all cases: binding
# [1] = target: T1, panel of 468 kinases (Homo sapiens, UniProt Q8NFD2); conditions: ANKK1; 1 μM; read-out: % control
# T1 construct: purchased KINOMEscan (ScanMAX) service
# T1 sequence (Q8NFD2 1-765): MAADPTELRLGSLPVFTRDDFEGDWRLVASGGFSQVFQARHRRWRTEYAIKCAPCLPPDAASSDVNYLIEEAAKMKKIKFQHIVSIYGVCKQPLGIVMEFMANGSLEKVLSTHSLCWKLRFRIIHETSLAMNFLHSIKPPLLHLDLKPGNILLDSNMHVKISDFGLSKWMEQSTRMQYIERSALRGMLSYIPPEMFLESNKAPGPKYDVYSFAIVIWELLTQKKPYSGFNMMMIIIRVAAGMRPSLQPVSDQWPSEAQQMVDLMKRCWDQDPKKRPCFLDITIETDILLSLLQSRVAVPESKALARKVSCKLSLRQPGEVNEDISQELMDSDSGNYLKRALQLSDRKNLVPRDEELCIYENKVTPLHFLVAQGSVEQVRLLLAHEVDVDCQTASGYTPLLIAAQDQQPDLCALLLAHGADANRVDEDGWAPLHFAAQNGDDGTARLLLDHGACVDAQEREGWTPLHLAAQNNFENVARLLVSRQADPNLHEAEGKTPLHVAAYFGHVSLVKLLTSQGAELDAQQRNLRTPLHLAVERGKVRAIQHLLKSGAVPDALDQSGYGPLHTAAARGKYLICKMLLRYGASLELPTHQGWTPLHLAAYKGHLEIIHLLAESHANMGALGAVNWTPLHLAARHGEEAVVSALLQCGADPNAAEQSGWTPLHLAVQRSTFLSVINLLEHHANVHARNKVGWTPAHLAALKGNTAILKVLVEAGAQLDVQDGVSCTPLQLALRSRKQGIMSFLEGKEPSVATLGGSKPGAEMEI
# Protocol: (§1) The kinase selectivity of inventive compounds 12, 75, and 77 was evaluated by KINOMEscan®. KINOMEscan® (ScanMAX™) analysis was performed against a near comprehensive panel of 468 kinases. The control percentage (% control) for inventive compounds at 1 μM in DMSO was determined by Equation 1: % control=(inventive compound−positive control)/(negative control−positive control)×100%, Equation 1
# (§2) wherein the positive control is a compound with a % control value of 0% relative light units (RLU), and the negative control (i.e., DMSO) has % control value of 100% RLU. The enzyme selectivity in the present invention is defined as follows: inventive compounds are considered active for an enzyme when the observed % control is less than 35% (<35%).
# [2] = target: T2, panel of 468 kinases (Homo sapiens, UniProt Q13233); conditions: MAP3K1; 1 μM; read-out: % control
# T2 construct: purchased KINOMEscan (ScanMAX) service
# T2 sequence (Q13233 whole entry): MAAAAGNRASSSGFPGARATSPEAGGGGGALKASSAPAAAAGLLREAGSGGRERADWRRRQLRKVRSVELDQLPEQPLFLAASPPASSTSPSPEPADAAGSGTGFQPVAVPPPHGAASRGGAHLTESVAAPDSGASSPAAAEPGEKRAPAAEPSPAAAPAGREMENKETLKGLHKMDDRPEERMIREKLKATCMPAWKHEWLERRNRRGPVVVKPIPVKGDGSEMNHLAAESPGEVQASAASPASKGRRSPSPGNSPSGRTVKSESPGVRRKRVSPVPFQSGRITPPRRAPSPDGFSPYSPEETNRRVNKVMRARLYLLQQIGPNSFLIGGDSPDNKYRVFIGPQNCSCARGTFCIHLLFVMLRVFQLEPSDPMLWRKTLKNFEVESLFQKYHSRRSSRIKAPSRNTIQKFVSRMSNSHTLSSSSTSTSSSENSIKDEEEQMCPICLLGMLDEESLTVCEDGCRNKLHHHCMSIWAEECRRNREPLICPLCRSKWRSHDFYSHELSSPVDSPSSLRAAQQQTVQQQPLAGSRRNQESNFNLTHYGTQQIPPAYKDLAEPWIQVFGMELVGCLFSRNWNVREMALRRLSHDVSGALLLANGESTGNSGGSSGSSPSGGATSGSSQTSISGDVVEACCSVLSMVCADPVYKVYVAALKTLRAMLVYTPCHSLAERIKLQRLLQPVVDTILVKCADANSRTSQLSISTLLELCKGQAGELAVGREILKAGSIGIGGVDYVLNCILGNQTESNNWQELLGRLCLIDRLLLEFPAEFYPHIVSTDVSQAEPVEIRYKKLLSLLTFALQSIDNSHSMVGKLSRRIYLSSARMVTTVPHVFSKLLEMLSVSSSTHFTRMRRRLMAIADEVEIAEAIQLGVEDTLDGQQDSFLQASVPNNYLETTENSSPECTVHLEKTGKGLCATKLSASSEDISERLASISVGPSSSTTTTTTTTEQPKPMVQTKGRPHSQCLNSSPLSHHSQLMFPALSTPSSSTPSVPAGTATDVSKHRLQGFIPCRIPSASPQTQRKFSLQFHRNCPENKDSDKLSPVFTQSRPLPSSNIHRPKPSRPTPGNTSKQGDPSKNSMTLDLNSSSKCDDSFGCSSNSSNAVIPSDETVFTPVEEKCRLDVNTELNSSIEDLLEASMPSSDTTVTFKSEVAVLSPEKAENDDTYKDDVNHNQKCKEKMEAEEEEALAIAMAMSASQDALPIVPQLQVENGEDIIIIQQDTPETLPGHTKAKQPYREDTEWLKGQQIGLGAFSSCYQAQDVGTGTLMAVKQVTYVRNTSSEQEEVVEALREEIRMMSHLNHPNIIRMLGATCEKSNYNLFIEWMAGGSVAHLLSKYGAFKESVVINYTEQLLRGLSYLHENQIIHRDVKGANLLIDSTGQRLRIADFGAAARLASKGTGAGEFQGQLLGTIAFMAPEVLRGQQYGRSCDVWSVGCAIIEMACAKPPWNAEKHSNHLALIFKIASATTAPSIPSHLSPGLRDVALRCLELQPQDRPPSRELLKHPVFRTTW
# Protocol: as §1, §2
# [3] = target: T3, panel of 468 kinases (Homo sapiens, UniProt Q9Y6M4); conditions: CSNK1G3; 1 μM; read-out: % control
# T3 construct: purchased KINOMEscan (ScanMAX) service
# T3 sequence (Q9Y6M4 whole entry): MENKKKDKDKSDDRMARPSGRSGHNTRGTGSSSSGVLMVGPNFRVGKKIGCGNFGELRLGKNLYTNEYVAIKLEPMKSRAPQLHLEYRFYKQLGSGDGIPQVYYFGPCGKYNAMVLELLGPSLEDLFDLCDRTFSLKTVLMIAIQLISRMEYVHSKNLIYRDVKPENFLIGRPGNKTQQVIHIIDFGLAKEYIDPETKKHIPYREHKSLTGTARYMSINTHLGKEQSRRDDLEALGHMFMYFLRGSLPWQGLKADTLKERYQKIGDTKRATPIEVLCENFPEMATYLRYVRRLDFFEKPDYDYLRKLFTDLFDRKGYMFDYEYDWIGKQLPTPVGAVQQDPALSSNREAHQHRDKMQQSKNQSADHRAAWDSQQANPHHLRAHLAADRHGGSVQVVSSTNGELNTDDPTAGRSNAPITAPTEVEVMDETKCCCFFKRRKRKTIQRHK
# Protocol: as §1, §2
# [4] = target: T4, panel of 468 kinases (Homo sapiens, UniProt Q16566); conditions: CAMK4; 1 μM; read-out: % control
# T4 construct: purchased KINOMEscan (ScanMAX) service
# T4 sequence (Q16566 1-473): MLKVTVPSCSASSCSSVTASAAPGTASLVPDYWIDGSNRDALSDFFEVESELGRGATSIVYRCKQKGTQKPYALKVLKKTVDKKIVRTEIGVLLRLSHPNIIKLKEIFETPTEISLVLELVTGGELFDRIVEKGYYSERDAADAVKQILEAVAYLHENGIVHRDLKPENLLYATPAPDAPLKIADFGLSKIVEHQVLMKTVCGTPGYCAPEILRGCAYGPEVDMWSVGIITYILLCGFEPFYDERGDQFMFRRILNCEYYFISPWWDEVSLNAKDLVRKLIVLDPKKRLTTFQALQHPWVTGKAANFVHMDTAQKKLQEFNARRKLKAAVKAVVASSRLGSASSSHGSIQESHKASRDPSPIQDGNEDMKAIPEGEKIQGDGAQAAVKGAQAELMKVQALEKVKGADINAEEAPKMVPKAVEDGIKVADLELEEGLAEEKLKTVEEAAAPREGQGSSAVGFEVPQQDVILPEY
# Protocol: as §1, §2
# [5] = target: T5, panel of 468 kinases (Homo sapiens, UniProt P51813); conditions: BMX; 1 μM; read-out: % control
# T5 construct: purchased KINOMEscan (ScanMAX) service
# T5 sequence (P51813 1-675): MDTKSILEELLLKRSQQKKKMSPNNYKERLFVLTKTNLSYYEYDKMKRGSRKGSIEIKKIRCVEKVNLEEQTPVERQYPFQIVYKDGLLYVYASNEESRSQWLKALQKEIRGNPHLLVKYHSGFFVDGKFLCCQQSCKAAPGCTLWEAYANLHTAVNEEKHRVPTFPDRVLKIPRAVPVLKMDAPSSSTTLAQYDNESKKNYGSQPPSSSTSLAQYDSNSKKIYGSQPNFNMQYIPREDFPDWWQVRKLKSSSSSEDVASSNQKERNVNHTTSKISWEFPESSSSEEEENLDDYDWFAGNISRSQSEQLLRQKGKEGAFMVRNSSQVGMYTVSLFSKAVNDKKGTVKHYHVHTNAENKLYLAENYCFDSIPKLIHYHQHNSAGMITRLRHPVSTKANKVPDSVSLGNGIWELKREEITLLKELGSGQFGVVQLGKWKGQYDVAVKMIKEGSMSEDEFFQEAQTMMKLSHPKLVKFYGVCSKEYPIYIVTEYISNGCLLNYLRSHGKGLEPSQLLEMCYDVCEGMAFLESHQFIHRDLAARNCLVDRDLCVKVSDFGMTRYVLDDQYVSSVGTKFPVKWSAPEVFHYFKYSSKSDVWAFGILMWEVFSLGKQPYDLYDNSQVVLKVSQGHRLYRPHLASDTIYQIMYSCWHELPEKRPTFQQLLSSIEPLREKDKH
# Protocol: as §1, §2
# [6] = target: T6, panel of 468 kinases (Homo sapiens, UniProt P37023); conditions: ACVRL1; 1 μM; read-out: % control
# T6 construct: purchased KINOMEscan (ScanMAX) service
# T6 sequence (P37023 22-503): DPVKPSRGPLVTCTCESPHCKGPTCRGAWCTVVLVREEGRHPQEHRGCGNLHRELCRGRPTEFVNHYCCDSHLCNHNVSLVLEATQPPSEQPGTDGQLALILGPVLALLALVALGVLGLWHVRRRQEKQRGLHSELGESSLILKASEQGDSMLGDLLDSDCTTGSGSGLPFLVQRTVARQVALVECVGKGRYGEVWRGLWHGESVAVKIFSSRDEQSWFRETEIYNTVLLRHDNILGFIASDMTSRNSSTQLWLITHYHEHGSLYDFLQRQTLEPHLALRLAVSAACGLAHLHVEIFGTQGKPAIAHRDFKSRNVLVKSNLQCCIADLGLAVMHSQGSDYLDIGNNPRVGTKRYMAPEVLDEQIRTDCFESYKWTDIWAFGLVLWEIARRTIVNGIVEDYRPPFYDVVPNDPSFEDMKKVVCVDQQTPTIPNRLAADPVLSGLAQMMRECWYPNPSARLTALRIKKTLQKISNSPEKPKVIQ
# Protocol: as §1, §2
# [7] = target: T7, panel of 468 kinases (Homo sapiens, UniProt P00533, DEL746-750); conditions: EGFR(E746-A750del); 1 μM; read-out: % control
# T7 construct: purchased KINOMEscan (ScanMAX) service
# T7 sequence (P00533 with tags, fused parts or gaps DEL746-750): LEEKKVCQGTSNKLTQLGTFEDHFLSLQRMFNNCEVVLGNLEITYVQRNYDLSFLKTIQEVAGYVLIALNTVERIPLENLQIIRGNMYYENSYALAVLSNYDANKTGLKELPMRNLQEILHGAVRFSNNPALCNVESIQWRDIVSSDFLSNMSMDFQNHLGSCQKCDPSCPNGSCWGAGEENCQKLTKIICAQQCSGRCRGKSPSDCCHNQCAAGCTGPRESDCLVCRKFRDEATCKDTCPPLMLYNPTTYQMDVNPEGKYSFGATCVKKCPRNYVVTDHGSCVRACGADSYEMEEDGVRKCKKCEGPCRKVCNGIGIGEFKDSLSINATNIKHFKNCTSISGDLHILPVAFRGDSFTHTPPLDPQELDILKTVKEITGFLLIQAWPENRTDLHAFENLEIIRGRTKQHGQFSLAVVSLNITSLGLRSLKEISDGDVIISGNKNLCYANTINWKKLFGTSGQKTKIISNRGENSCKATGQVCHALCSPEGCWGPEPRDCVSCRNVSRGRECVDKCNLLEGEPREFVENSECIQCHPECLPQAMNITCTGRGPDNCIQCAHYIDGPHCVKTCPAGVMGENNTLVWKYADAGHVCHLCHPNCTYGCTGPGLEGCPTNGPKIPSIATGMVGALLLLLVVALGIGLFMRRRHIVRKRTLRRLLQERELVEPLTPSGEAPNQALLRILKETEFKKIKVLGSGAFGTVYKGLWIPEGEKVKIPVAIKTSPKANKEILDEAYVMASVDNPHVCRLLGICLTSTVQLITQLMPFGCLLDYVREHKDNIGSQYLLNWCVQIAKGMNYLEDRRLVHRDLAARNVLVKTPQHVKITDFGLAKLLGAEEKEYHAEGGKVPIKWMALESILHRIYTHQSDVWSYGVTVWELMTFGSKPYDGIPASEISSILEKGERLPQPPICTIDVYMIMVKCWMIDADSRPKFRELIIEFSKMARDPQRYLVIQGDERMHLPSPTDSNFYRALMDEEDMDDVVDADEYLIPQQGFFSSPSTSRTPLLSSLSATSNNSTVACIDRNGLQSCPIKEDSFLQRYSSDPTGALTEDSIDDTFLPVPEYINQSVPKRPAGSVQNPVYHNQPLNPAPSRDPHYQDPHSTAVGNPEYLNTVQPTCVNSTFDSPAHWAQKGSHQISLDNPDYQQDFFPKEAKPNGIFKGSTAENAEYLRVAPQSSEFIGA
# Protocol: as §1, §2
# [8] = target: T8, panel of 468 kinases (Homo sapiens, UniProt Q08345); conditions: DDR1; 1 μM; read-out: % control
# T8 construct: purchased KINOMEscan (ScanMAX) service
# T8 sequence (Q08345 19-913): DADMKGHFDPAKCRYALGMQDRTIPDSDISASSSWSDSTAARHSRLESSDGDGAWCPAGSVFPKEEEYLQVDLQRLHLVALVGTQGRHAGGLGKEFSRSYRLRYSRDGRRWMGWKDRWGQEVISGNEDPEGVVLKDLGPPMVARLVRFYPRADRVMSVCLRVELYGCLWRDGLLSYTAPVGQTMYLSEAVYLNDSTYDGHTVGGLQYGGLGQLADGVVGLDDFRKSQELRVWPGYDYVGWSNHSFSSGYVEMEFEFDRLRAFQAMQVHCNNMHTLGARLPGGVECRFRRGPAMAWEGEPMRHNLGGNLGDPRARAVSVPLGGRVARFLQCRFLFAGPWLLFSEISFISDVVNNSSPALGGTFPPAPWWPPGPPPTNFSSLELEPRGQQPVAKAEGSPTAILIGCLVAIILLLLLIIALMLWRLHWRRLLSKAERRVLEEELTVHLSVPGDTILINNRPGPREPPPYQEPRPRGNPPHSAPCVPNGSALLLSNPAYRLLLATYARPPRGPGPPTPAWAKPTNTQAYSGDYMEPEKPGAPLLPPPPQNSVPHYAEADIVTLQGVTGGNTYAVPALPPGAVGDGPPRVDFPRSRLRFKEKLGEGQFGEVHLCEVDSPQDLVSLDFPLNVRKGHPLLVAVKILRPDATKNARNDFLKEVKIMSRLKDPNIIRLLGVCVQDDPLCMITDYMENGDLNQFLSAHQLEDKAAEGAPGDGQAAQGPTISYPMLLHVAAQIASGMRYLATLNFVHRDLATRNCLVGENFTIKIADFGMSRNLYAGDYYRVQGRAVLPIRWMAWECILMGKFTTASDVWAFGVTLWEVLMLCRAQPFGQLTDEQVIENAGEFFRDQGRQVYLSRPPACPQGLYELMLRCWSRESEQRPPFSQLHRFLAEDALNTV
# Protocol: as §1, §2
SMILES,remaining binding at 1 µM [1] [%],remaining binding at 1 µM [2] [%],remaining binding at 1 µM [3] [%],remaining binding at 1 µM [4] [%],remaining binding at 1 µM [5] [%],remaining binding at 1 µM [6] [%],remaining binding at 1 µM [7] [%],remaining binding at 1 µM [8] [%]
"CNc1nc(Nc2ccc(S(=O)(=O)N3CCC(N4CCOCC4)CC3)cc2OC)nc2[nH]cc(Cl)c12 [Compound 12, 5-chloro-N2-(2-methoxy-4-((4-morpholinopiperidin-1-yl)sulfonyl)phenyl)-N4-methyl-7H-pyrrolo[2,3-d]pyrimidine-2,4-diamine]",73,79,96,100,97,100,75,100
"CNc1nc(Nc2ccc(C(=O)N3CCC(N4CCOCC4)CC3)c3c2OCO3)nc2[nH]cc(Cl)c12 [Compound 75, (7-((5-chloro-4-(methylamino)-7H-pyrrolo[2,3-d]pyrimidin-2-yl)amino)benzo[d][1,3]dioxol-4-yl)(4-morpholinopiperidin-1-yl)methanone]",41,82,18,100,97,100,94,100
"CNc1nc(Nc2ccc(P3(=O)CCN(C4CCOCC4)CC3)cc2OC)nc2[nH]cc(Cl)c12 [Compound 77, 4-(4-((5-chloro-4-(methylamino)-7H-pyrrolo[2,3-d]pyrimidin-2-yl)amino)-3-methoxyphenyl)-1-(tetrahydro-2H-pyran-4-yl)-1,4-azaphosphinane 4-oxide]",65,73,89,100,99,100,87,100
